Reference: ChEMBL document CHEMBL5576086, “Macrocarpal B blocks the binding between the phospholipase A2 receptor and its antibodies” (Bioorg Med Chem, 2024)
The source made the active and inactive calls. No cut-off for these calls is given here. Starred links: 1 amine or outer side, 2 acyl side, 3 side chain; linkers in the order of their positions; H or OH if unused. Positions of bridges follow the written chain, without caps; N, C: chain ends. Non-standard residues stand in square brackets, D forms with d. Residues, ends and D or L forms follow the SMILES beside them. Chains are numbered I, II in the order given. Actinocin(9to1) = Cc1c2oc3c(C)ccc(C(=O)[*:1])c3nc-2c(C(=O)[*:2])c(N)c1=O; NMeV = CN[C@H](C(=O)O)C(C)C; Sar = CNCC(=O)O

Key:
Homo sapiens [1] = species on record: Homo sapiens; assay: Inhibition of Anti-PLA2R IgG interaction with human recombinant PLA2 receptor at 10 uM incubated for 1 hr by ELISA analysis relative to control
Homo sapiens [2] = species on record: Homo sapiens; assay: Inhibition of Anti-PLA2R IgG interaction with human recombinant PLA2 receptor at 10 uM by SPR analysis relative to control
Homo sapiens [3] = species on record: Homo sapiens; assay: Inhibition of Anti-PLA2R IgG interaction with human recombinant PLA2 receptor by SPR analysis; conditions: dose 50-80 nM
Homo sapiens [4] = species on record: Homo sapiens; assay: Inhibition of Anti-PLA2R IgG interaction with human recombinant PLA2 receptor assessed as maximum inhibition at 0 to 5 uM by SPR analysis relative to control; conditions: dose 0-5 µM
[5] = molecular target: Secretory phospholipase A2 receptor (Homo sapiens, UniProt Q13018); assay: Binding affinity to human recombinant PLA2 receptor assessed as dissociation constant by SPR analysis
Homo sapiens [6] = species on record: Homo sapiens; assay: Binding affinity to human Anti-PLA2R IgG at 1 to 500 uM by SPR analysis; conditions: dose 1-500 µM
Podocyte [7] = assay: Reversal of membranous nephropathy-patient derived 5% plasma induced cytotoxicity against human Podocytes assessed as cell viability recovery by measuring optical density at 0.2 uM measured at 48 hrs by CCK-8 assay (reference value: 0.4 +/- 0.1); type: functional
Podocyte [8] = assay: Reversal of membranous nephropathy-patient derived 5% plasma induced cytotoxicity against human Podocytes assessed as cell viability recovery by measuring optical density at 1 uM measured at 48 hrs by CCK-8 assay (reference value: 0.4 +/- 0.1); type: functional
Podocyte [9] = assay: Reversal of membranous nephropathy-patient derived 5% plasma induced cytotoxicity against human Podocytes assessed as cell viability recovery by measuring optical density at 5 uM measured at 48 hrs by CCK-8 assay (reference value: 0.4 +/- 0.1); type: functional
Podocyte [10] = assay: Reversal of membranous nephropathy-patient derived 5% plasma induced cytotoxicity against human Podocytes assessed as cell viability recovery by measuring optical density at 0.2 uM measured at 72 hrs by CCK-8 assay (reference value: 0.3 +/- 0.05); type: functional
Podocyte [11] = assay: Reversal of membranous nephropathy-patient derived 5% plasma induced cytotoxicity against human Podocytes assessed as cell viability recovery by measuring optical density at 1 uM measured at 72 hrs by CCK-8 assay (reference value: 0.3 +/- 0.05); type: functional
Podocyte [12] = assay: Reversal of membranous nephropathy-patient derived 5% plasma induced cytotoxicity against human Podocytes assessed as cell viability recovery by measuring optical density at 5 uM measured at 72 hrs by CCK-8 assay (reference value: 0.3 +/- 0.05); type: functional
Podocyte [13] = assay: Recovery of Podocin-expression in membranous nephropathy-patient derived 5% plasma induced human Podocytes by Western blot analysis; type: functional, cell-based; conditions: dose 0.2-5 µM
Podocyte [14] = assay: Reversal of membranous nephropathy-patient derived 5% plasma induced inhibition of cell migration in human Podocytes assessed as restoration of number of migrating cells at 1 uM measured upto 24 hrs by wound healing assay (reference value: 25.3 +/- 5.1); type: functional
Podocytes = assay: Inhibition of Anti-PLA2R IgG binding to human recombinant PLA2 receptor in human Podocytes assessed as mean fluorescence intensity at 5 uM by immunofluorescence analysis (reference value: 8.1 +/- 1.5); type: cell-based

Secretory phospholipase A2 receptor, sequence (Q13018 whole entry): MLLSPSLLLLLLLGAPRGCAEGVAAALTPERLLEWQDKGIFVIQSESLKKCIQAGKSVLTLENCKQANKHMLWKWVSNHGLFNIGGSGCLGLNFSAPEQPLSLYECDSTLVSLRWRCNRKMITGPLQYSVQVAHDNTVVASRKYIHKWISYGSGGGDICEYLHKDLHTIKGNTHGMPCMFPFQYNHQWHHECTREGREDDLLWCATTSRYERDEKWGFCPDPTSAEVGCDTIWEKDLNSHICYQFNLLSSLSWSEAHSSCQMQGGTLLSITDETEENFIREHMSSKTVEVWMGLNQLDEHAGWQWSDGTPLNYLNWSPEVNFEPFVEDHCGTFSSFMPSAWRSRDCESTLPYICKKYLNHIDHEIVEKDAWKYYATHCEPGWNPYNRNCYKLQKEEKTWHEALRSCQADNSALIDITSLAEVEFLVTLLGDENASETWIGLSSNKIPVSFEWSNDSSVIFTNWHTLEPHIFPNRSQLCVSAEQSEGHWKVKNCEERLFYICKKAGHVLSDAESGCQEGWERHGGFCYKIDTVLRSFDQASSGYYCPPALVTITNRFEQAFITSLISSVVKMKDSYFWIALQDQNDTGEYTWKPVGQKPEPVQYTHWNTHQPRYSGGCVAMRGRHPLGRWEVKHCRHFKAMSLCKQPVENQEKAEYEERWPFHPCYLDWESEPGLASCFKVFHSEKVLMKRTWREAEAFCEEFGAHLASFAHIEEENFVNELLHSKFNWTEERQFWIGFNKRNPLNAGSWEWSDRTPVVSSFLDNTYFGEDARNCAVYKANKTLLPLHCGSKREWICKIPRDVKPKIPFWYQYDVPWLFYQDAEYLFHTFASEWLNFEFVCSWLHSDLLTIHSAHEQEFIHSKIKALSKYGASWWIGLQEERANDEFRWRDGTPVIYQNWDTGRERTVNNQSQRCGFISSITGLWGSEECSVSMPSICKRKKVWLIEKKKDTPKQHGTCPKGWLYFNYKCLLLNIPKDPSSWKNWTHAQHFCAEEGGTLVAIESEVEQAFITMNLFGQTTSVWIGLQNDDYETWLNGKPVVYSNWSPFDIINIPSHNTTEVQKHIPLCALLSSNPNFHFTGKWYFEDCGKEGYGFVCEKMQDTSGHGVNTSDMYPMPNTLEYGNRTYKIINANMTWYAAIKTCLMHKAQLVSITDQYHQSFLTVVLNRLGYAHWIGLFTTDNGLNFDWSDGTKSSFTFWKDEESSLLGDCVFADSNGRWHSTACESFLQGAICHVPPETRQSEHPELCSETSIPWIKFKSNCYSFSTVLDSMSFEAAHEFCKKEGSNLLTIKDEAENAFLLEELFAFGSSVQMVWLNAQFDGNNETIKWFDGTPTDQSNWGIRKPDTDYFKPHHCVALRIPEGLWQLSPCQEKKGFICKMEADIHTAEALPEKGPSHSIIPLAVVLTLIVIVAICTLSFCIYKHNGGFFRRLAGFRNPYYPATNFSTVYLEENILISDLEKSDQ

Compound | inhibition (Homo sapiens [1]) [%] | inhibition (Homo sapiens [2]) [%] | also measured
CC(C)C[C@@H](c1c(O)c(C=O)c(O)c(C=O)c1O)[C@@]1(C)CC[C@H]2C1=C[C@H](C(C)(C)O)CC[C@H]2C | 21.2 | 11.3 | 
CC(=O)O[C@H]1C[C@]2(O)C(COC(=O)C(OC(=O)CC(C)C)C(C)C)=CO[C@@H](OC(=O)CC(C)C)[C@@H]2[C@@]12CO2 (some centres undefined) | 30.2 | 7.7 | 
CCCCCc1cc(O)c(C/C=C(\C)CCC=C(C)C)c(O)c1 | 32.9 | 9.7 | 
CC(C)C[C@@H](c1c(O)c(C=O)c(O)c(C=O)c1O)[C@@H]1CC[C@@](C)(O)[C@@H]2[C@@H]3[C@H](CC[C@]21C)C3(C)C | 34.3 | 12.6 | 
CC(=O)C[C@]1(O)C(=O)C2=C(OC[C@@H]2C)c2ccc3c(C)cccc3c21 | 28.7 | 10.1 | 
CC(C)=CCc1cc2c(=O)c3c(O)c(CC=C(C)C)c(O)c(CC=C(C)C)c3oc2c(O)c1O | 55.4 |  | 
COc1c(O)c2c(=O)cc(OC)c3c4c(OC)cc(O)c5c(=O)c(OC)c6c(c(c1[C@H](C(C)=O)[C@](C)(O)C6)c23)c54 | 74.3 | 11.9 | 
CC(C)C[C@H](c1c(O)c(C=O)c(O)c(C=O)c1O)[C@@]1(C)CC[C@@H]2[C@@H]1[C@H]1[C@@H](CC[C@@]2(C)O)C1(C)C [MACROCARPAL B] | 41.6 | 19 | inhibition (Homo sapiens [3]): Dose-Dependent Effect; Imax (Homo sapiens [4]): 30%; Kd [5]: 1470 nM; Activity (Homo sapiens [6]): inactive; OD (Podocyte [7]): 0.6; OD (Podocyte [8]): 0.7; OD (Podocyte [9]): 0.8; OD (Podocyte [10]): 0.5; OD (Podocyte [11]): 0.6; OD (Podocyte [12]): 0.6; Activity (Podocyte [13]): Dose-Dependent Effect; Activity (Podocyte [14]): 50.7; Flu intensity (Podocytes): 2.1
COc1cc(O)c2c(=O)c3cc(CC=C(C)C)c(O)c(O)c3oc2c1CC=C(C)C | 51.8 | 10.7 | 
CC1(C)CC[C@]2(C(=O)O)CC[C@]3(COC(=O)/C=C/c4ccc(O)c(O)c4)C(=CC[C@@H]4[C@@]5(C)CC[C@H](O)C(C)(C)[C@@H]5CC[C@]43C)[C@@H]2C1 | 20.5 |  | 
Cc1c2oc3c(C)ccc(C(=O)N[C@@H]4C(=O)N[C@H](C(C)C)C(=O)N5CCC[C@H]5C(=O)N(C)CC(=O)N(C)[C@@H](C(C)C)C(=O)O[C@@H]4C)c3nc-2c(C(=O)N[C@@H]2C(=O)N[C@H](C(C)C)C(=O)N3CCC[C@H]3C(=O)N(C)CC(=O)N(C)[C@@H](C(C)C)C(=O)O[C@@H]2C)c(N)c1=O (I: T[dV]P[Sar][NMeV] / II: T[dV]P[Sar][NMeV]; ester I:1-I:C, II:1-II:C; linker I:N-II:N via Actinocin(9to1)) | 79.3 |  | 
CC(C)=CCC[C@]1(C)C=Cc2c(O)c3c(c(CC=C(C)C)c2O1)O[C@]12C(=C[C@@H]4C[C@H]1C(C)(C)O[C@@]2(C/C=C(/C)C(=O)O)C4=O)C3=O | 73.1 | 13.4 | 
CC(=O)O[C@H]1C[C@@H]2C(COC(=O)CC(C)C)=CO[C@@H](OC(=O)CC(C)C)[C@@H]2[C@@]12CO2 | 26.4 |  | 
CC(C)=CCc1c(O)c(CC=C(C)C)c2oc3c(O)ccc(O)c3c(=O)c2c1O | 49.4 | 12.2 | 
CO[C@H]1C[C@H](O[C@H]2[C@H](C)O[C@@H](O[C@@H]3/C(C)=C/C[C@@H]4C[C@@H](C[C@]5(C=C[C@H](C)[C@@H](C6CCCCC6)O5)O4)OC(=O)[C@@H]4C=C(C)[C@@H](O)[C@H]5OC/C(=C\C=C\[C@@H]3C)[C@]54O)C[C@@H]2OC)O[C@@H](C)[C@@H]1O | 27.1 | 12 | 
